Holding throughout (assay type): biochemical
The target in one test is T1, JAK1 (Homo sapiens, UniProt P23458).
T1 construct: JAK1 (aa 850-1154) and TYK2 (aa 871-1187) are expressed with an N-terminally fused GST-tag; GST (N); purchased Carna Biosciences, Inc; host or cells: baculovirus expression system
As to the kind of experiment: JAK1 kinase assay (HTRF, inhibition of phosphorylation of a synthetic peptide). To be noted: catalytic domain aa 850-1154, GST-tag; 7 μM ATP (Km); read-out: JAK1 kinase inhibitory activity (EC50). A digest of the protocol: (§1)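 Baculovirus-expressed catalytic domains (GST-JAK1 aa 850-1154, GST-TYK2 aa 871-1187, His-JAK2, His-JAK3) phosphorylate 1 μM biotin-TK peptide 20-30 min at RT in 50 mM Hepes pH 7.0 with ATP at Km: JAK1 7 μM, JAK2 4 μM, JAK3 2 μM, TYK2 13 μM; 0.75% DMSO. Stopped with EDTA, HTRF read overnight.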
(Time-resolved FRET reads energy transfer from a long-lived donor to a nearby acceptor.)

For the next test, the target named is T2, JAK3 (Homo sapiens, UniProt P52333).
T2 construct: All four purified enzymes contain only the catalytic domain; His (N); purchased Carna Biosciences, Inc; host or cells: baculovirus expression system
As to the kind of experiment: JAK3 kinase assay (HTRF, inhibition of phosphorylation of a synthetic peptide). To be noted: catalytic domain, His-tag; 2 μM ATP (Km); read-out: JAK3 kinase inhibitory activity (EC50). In short, it runs like this: as §1

The target in another test is T3, JAK2 (Homo sapiens, UniProt O60674).
T3 construct: All four purified enzymes contain only the catalytic domain; His (N); purchased Carna Biosciences, Inc; host or cells: baculovirus expression system
Put plainly: JAK2 kinase assay (HTRF, inhibition of phosphorylation of a synthetic peptide). Conditions: catalytic domain, His-tag; 4 μM ATP (Km); read-out: JAK2 kinase inhibitory activity (EC50). A digest of the protocol:
as §1

T1 sequence (P23458 850-1154): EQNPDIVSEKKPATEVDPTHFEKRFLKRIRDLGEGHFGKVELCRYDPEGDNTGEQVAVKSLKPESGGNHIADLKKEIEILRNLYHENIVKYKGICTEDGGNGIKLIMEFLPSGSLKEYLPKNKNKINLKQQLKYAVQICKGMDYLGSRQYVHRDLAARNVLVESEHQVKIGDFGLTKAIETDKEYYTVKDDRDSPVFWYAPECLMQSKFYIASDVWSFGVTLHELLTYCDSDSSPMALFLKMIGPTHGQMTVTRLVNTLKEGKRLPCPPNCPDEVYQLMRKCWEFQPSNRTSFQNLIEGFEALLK
T3 sequence (O60674 849-1124 limits assumed): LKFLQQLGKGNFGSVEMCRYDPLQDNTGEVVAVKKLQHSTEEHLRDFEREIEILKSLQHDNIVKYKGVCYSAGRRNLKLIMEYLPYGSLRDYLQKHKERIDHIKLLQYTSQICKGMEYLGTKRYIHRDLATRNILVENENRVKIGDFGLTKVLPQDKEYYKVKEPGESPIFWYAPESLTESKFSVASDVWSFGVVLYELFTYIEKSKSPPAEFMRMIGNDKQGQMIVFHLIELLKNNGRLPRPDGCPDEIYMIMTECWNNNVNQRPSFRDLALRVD
T2 sequence (P52333 822-1111 limits assumed): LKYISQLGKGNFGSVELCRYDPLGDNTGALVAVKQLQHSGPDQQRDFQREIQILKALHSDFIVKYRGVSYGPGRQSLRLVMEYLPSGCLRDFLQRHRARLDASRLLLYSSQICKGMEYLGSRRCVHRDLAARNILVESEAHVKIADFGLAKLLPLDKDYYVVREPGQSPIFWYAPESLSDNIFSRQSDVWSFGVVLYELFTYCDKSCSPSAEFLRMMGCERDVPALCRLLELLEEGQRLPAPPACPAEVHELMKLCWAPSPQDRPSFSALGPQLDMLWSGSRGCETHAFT

`Cc1nnc(C(=O)N2CCN(c3ncnc4[nH]ccc34)CC3(CC3)C2)o1` [Example 194, (5-methyl-1,3,4-oxadiazol-2-yl)-[5-(7H-pyrrolo[2,3-d]pyrimidin-4-yl)-5,8-diazaspiro[2.6]nonan-8-yl]methanone]: the half-maximal effective concentration (EC50) on JAK1 is 100 to 1000 nM; at JAK3 it was above 1000 nM; at JAK2, 100 to 1000 nM.
`O=C(c1cnco1)N1CCN(c2ncnc3[nH]ccc23)CC2(CC2)C1` [Example 155, oxazol-5-yl-[5-(7H-pyrrolo[2,3-d]pyrimidin-4-yl)-5,8-diazaspiro[2.6]nonan-8-yl]methanone]: the concentration giving a half-maximal response (EC50) at JAK1, on JAK3 and on JAK2 was 100 to 1000 nM throughout.
As to `Cc1nocc1C(=O)N1CCN(c2ncnc3[nH]ccc23)CC2(CC2)C1` [Example 244, (3-methylisoxazol-4-yl)-[5-(7H-pyrrolo[2,3-d]pyrimidin-4-yl)-5,8-diazaspiro[2.6]nonan-8-yl]methanone], the EC50 on JAK1, at JAK3 and on JAK2 was 100 to 1000 nM throughout.
With `O=C(Cc1ccc(Cl)cc1Cl)N1CCN(c2ncnc3[nH]ccc23)CC2(CC2)C1` [Example 270, 2-(2,4-dichlorophenyl)-1-[5-(7H-pyrrolo[2,3-d]pyrimidin-4-yl)-5,8-diazaspiro[2.6]nonan-8-yl]ethanone], the concentration giving a half-maximal response (EC50) was 100 to 1000 nM on JAK1, 100 to 1000 nM at JAK3 and below 100 nM on JAK2.
Turning to `O=C(Cc1nnn[nH]1)N1CCN(c2ncnc3[nH]ccc23)CC2(CC2)C1` [Example 215, 1-[5-(7H-pyrrolo[2,3-d]pyrimidin-4-yl)-5,8-diazaspiro[2.6]nonan-8-yl]-2-(1H-tetrazol-5-yl)ethanone], the values for the EC50 at JAK1, on JAK3 and at JAK2 were below 100 nM, 100 to 1000 nM and below 100 nM, respectively.
Turning to `O=C(c1cnsn1)N1CCN(c2ncnc3[nH]ccc23)CC2(CC2)C1` [Example 202, [5-(7H-pyrrolo[2,3-d]pyrimidin-4-yl)-5,8-diazaspiro[2.6]nonan-8-yl]-(1,2,5-thiadiazol-3-yl)methanone], the EC50 on JAK1, at JAK3 and on JAK2 was 100 to 1000 nM throughout.
As for `Cc1ncoc1C(=O)N1CCN(c2ncnc3[nH]ccc23)CC2(CC2)C1` [Example 191, (4-methyloxazol-5-yl)-[5-(7H-pyrrolo[2,3-d]pyrimidin-4-yl)-5,8-diazaspiro[2.6]nonan-8-yl]methanone], the concentration for a half-maximal effect (EC50) on JAK1 was 100 to 1000 nM; on JAK3, above 1000 nM; at JAK2 it was 100 to 1000 nM.
Regarding `O=C(c1cnon1)N1CCCN(c2ncnc3[nH]ccc23)CC12CC2` [Example 121, 1,2,5-oxadiazol-3-yl-[5-(7H-pyrrolo[2,3-d]pyrimidin-4-yl)-5,9-diazaspiro[2.6]nonan-9-yl]methanone], the EC50 was 100 to 1000 nM at JAK1, below 100 nM on JAK3 and 100 to 1000 nM at JAK2.
`O=C(N1CCN(c2ncnc3[nH]ccc23)CC2(CC2)C1)C1(c2ccccc2)CC1` [Example 260, (1-phenylcyclopropyl)-[5-(7H-pyrrolo[2,3-d]pyrimidin-4-yl)-5,8-diazaspiro[2.6]nonan-8-yl]methanone]: the figures for the EC50 on JAK1, on JAK3 and at JAK2 were above 1000 nM, above 1000 nM and 100 to 1000 nM, respectively.
In the case of `Cc1[nH]ncc1C(=O)N1CCCN(c2ncnc3[nH]ccc23)CC12CC2` [Example 207, (5-methyl-1H-pyrazol-4-yl)-[5-(7H-pyrrolo[2,3-d]pyrimidin-4-yl)-5,9-diazaspiro[2.6]nonan-9-yl]methanone], the EC50 was above 1000 nM on JAK1, above 1000 nM on JAK3 and 100 to 1000 nM at JAK2.
With `N#C[C@@H]1CCCN1C(=O)N1CCN(c2ncnc3[nH]ccc23)CC2(CC2)C1` [Example 222, (2S)-1-[5-(7H-pyrrolo[2,3-d]pyrimidin-4-yl)-5,8-diazaspiro[2.6]nonane-8-carbonyl]pyrrolidine-2-carbonitrile], the concentration for a half-maximal effect (EC50) is 100 to 1000 nM at JAK1, 100 to 1000 nM on JAK3 and below 100 nM on JAK2.
Regarding `CN(CCC#N)C(=O)N1CCN(c2ncnc3[nH]ccc23)CC2(CC2)C1` [Example 220, N-(2-cyanoethyl)-N-methyl-5-(7H-pyrrolo[2,3-d]pyrimidin-4-yl)-5,8-diazaspiro[2.6]nonane-8-carboxamide], the EC50 at JAK1, on JAK3 and on JAK2 was 100 to 1000 nM throughout.
As to `O=C(c1cnsc1)N1CCCN(c2ncnc3[nH]ccc23)CC12CC2` [Example 211, isothiazol-4-yl-[5-(7H-pyrrolo[2,3-d]pyrimidin-4-yl)-5,9-diazaspiro[2.6]nonan-9-yl]methanone], the concentration for a half-maximal effect (EC50) at JAK1, on JAK3 and on JAK2 was 100 to 1000 nM each time.
Turning to `Cc1cc(C(=O)N2CCN(c3ncnc4[nH]ccc34)CC3(CC3)C2)sn1` [Example 233, (3-methylisothiazol-5-yl)-[5-(7H-pyrrolo[2,3-d]pyrimidin-4-yl)-5,8-diazaspiro[2.6]nonan-8-yl]methanone], the EC50 at JAK1 is 100 to 1000 nM; at JAK3, above 1000 nM; at JAK2, 100 to 1000 nM.
As to `Cc1nnsc1C(=O)N1CCCN(c2ncnc3[nH]ccc23)CC12CC2` [Example 147, (4-methylthiadiazol-5-yl)-[5-(7H-pyrrolo[2,3-d]pyrimidin-4-yl)-5,9-diazaspiro[2.6]nonan-9-yl]methanone], the 50% effective concentration (EC50) at JAK1 is 100 to 1000 nM; on JAK3, above 1000 nM; at JAK2, 100 to 1000 nM.
As to `Cc1ncccc1C(=O)N1CCCN(c2ncnc3[nH]ccc23)CC12CC2` [Example 136, (2-methyl-3-pyridyl)-[5-(7H-pyrrolo[2,3-d]pyrimidin-4-yl)-5,9-diazaspiro[2.6]nonan-9-yl]methanone], the 50% effective concentration (EC50) on JAK1 was above 1000 nM; on JAK3, above 1000 nM; at JAK2, 100 to 1000 nM.
Take `CC(C)(C)c1ccc(CC(=O)N2CCN(c3ncnc4[nH]ccc34)CC3(CC3)C2)cc1` [Example 267, 2-(4-tert-butylphenyl)-1-[5-(7H-pyrrolo[2,3-d]pyrimidin-4-yl)-5,8-diazaspiro[2.6]nonan-8-yl]ethanone]: the EC50 at JAK1, on JAK3 and at JAK2 was 100 to 1000 nM in each case.
Turning to `O=C(c1ccnnc1)N1CCN(c2ncnc3[nH]ccc23)CC2(CC2)C1` [Example 139, pyridazin-4-yl-[5-(7H-pyrrolo[2,3-d]pyrimidin-4-yl)-5,8-diazaspiro[2.6]nonan-8-yl]methanone], the half-maximal effective concentration (EC50) on JAK1 was 100 to 1000 nM; at JAK3, above 1000 nM; on JAK2, 100 to 1000 nM.
For the compound `Cc1ccncc1C(=O)N1CCN(c2ncnc3[nH]ccc23)CC2(CC2)C1` [Example 150, (4-methyl-3-pyridyl)-[5-(7H-pyrrolo[2,3-d]pyrimidin-4-yl)-5,8-diazaspiro[2.6]nonan-8-yl]methanone], the EC50 was 100 to 1000 nM at JAK1, above 1000 nM on JAK3 and above 1000 nM at JAK2.
For the compound `O=C(c1c[nH]nn1)N1CCN(c2ncnc3[nH]ccc23)CC2(CC2)C1` [Example 204, [5-(7H-pyrrolo[2,3-d]pyrimidin-4-yl)-5,8-diazaspiro[2.6]nonan-8-yl]-(1H-triazol-4-yl)methanone], the EC50 on JAK1, at JAK3 and at JAK2 was 100 to 1000 nM throughout.
`O=C(c1ccon1)N1CCN(c2ncnc3[nH]ccc23)CC2(CC2)C1` [Example 152, isoxazol-3-yl-[5-(7H-pyrrolo[2,3-d]pyrimidin-4-yl)-5,8-diazaspiro[2.6]nonan-8-yl]methanone]: the EC50 on JAK1, on JAK3 and on JAK2 was 100 to 1000 nM each time.
Consider `Cc1cc(C(=O)N2CCCN(c3ncnc4[nH]ccc34)CC23CC3)on1` [Example 122, (3-methylisoxazol-5-yl)-[5-(7H-pyrrolo[2,3-d]pyrimidin-4-yl)-5,9-diazaspiro[2.6]nonan-9-yl]methanone], for which the EC50 at JAK1 is below 100 nM; on JAK3, 100 to 1000 nM; on JAK2, below 100 nM.
`Cc1cnc(C(=O)N2CCCN(c3ncnc4[nH]ccc34)CC23CC3)cn1` [Example 197, (5-methylpyrazin-2-yl)-[5-(7H-pyrrolo[2,3-d]pyrimidin-4-yl)-5,9-diazaspiro[2.6]nonan-9-yl]methanone]: the EC50 was 100 to 1000 nM at JAK1, above 1000 nM on JAK3 and 100 to 1000 nM on JAK2.
On to `O=C(Cc1ccccc1Cl)N1CCN(c2ncnc3[nH]ccc23)CC2(CC2)C1` [Example 173, 2-(2-chlorophenyl)-1-[5-(7H-pyrrolo[2,3-d]pyrimidin-4-yl)-5,8-diazaspiro[2.6]nonan-8-yl]ethanone], for which the EC50 is 100 to 1000 nM on JAK1, 100 to 1000 nM on JAK3 and below 100 nM at JAK2.
Regarding `O=C(c1cccc(Cl)c1)N1CCN(c2ncnc3[nH]ccc23)CC2(CC2)C1` [Example 186, (3-chlorophenyl)-[5-(7H-pyrrolo[2,3-d]pyrimidin-4-yl)-5,8-diazaspiro[2.6]nonan-8-yl]methanone], the results for the EC50 on JAK1, on JAK3 and at JAK2 were 100 to 1000 nM, above 1000 nM and 100 to 1000 nM, respectively.
For the compound `N#Cc1c[nH]c(C(=O)N2CCN(c3ncnc4[nH]ccc34)CC3(CC3)C2)c1` [Example 208, 5-[5-(7H-pyrrolo[2,3-d]pyrimidin-4-yl)-5,8-diazaspiro[2.6]nonane-8-carbonyl]-1H-pyrrole-3-carbonitrile], the 50% effective concentration (EC50) on JAK1 was below 100 nM; at JAK3, 100 to 1000 nM; on JAK2 it was below 100 nM.

In general, EC50 refers to the concentration at which the effect is half-maximal.

(Values after patent publication US9586961B2, “Homopiperazine derivatives as protein tyrosine kinase inhibitors and pharmaceutical use thereof” (LEO PHARMA A/S, priority 2010, dated 2017).)
